In article PMC4643977, “Negative Feedbacks by Isoprenoids on a Mevalonate Kinase Expressed in the Corpora Allata of Mosquitoes” (PLoS ONE, 2015):

B1: Aedes aegypti mevalonate kinase (AaMVK) (Aedes aegypti) (protein)
chain: MNSLNSFEISAPGKVILHGEHSVVYGKPAIAGPIGLRTYLTYKKLDVPEIILDFASIPFTSKLSLESFNQFLQQHNCHSDMQPLEFLSKLRTSEEFPFAQYVSPQPAQDSTKERYSLGVALYLINRIMRSEGVDALPTKSGFQLTIKSVMSIGAGLGSSAGYGVCVSAGAYVITKLAKGELTVDNALNYSFQGNEPEVLKKISQWAFDSELVMHERPSGIDNTICTYGNLIKFRKGEPFESLKLRQQINILIVDTKVSRTTSKLVANVAALKNKHPKMMESILDAMGHLVDDAVELLEDERDQFEALRTLVAVNNNLLRAIGVSHPSLEKVFQLADSSGFDAKLTGAGGGGCALVFLPKDYESLKEFGVLTGSLTEAGFSWMATTIGGSGVEFKAIE
notes: recombinant His-tagged full-length AaMVK (397 aa) expressed in E. coli

How the values were obtained:
[1] = target: T1, Aedes aegypti mevalonate kinase (AaMVK) (Aedes aegypti, UniProt Q176C1); experiment: PK/LDH-coupled spectrophotometric kinase assay, Ki from varied ATP and inhibitor; assay type: biochemical
T1 construct: gene 5567998; recombinant His-tagged full-length AaMVK (397 aa) expressed in E. coli
T1 sequence (Q176C1 1-397): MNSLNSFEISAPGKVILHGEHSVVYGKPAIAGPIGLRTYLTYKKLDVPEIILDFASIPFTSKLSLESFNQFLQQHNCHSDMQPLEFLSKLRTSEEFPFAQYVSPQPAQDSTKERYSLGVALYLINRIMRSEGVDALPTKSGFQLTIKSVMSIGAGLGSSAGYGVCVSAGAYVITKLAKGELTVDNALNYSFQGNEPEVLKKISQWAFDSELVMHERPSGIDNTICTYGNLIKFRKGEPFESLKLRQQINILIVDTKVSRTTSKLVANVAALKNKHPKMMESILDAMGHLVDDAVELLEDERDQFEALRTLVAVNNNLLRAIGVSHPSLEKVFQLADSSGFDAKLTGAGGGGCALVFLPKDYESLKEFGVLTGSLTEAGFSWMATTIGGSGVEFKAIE

[2] = substrate: Nc1ncnc2c1ncn2[C@@H]1O[C@H](COP(=O)(O)OP(=O)(O)OP(=O)(O)O)[C@@H](O)[C@H]1O; experiment: Michaelis-Menten kinetics, PK/LDH-coupled assay (Km); assay type: biochemical, Aedes aegypti; details: Mg2+
purified protein = substrate: C[C@@](O)(CCO)CC(=O)O; experiment: purified protein; details: Mg2+

Molecule	Ki [1] [µM]	Km [2] [µM]	Km (purified protein) [µM]
CC(C)=CCC/C(C)=C/COP(=O)(O)OP(=O)(O)O [GPP, geranyl diphosphate]	0.55 ± 0.28	–	–
CC(C)=CCC/C(C)=C/CC/C(C)=C/CO[P@@](=O)(O)OP(=O)(O)O (stereo in doubt) [FPP, farnesyl diphosphate]	0.44 ± 0.2	–	–
CC(C)=CCC/C(C)=C/CC/C(C)=C/CC/C(C)=C/COP(=O)(O)OP(=O)(O)O [GGPP, geranyl-geranyl pyrophosphate]	0.93 ± 0.19	–	–
B1	–	140 ± 28	90 ± 18
